Data reported in patent US20060177474A1, “Agricultural and horticultural poison bait preparation” (priority 2005, published 2006).

Row | melting point [°C] | Compound
1 | 153 to 155 | Cc1cc(C(F)(C(F)(F)F)C(F)(F)F)ccc1NC(=O)c1cccc(Br)c1C(=O)NC(C)CS(C)(=O)=O (stereo not shown)
2 | 82 | Cc1cc(C(F)(C(F)(F)F)C(F)(F)F)ccc1N(C(=O)c1c(I)cccc1C(N)=O)C(C)CS(C)(=O)=O (stereo not shown) [compound 27, 3-iodo-N′-{2-methyl-4-[1,2,2,2-tetrafluoro-1-(trifluoromethyl)ethyl]phenyl}-N^2-(1-methyl-2-methylsulfonylethyl)phthalamide]
3 | 134 | Cc1cc(C(F)(C(F)(F)F)C(F)(F)F)ccc1NC(=O)c1cccc(I)c1C(=O)NC(C)C[S+](C)[O-] (stereo not shown) [compound 28, 3-iodo-N^1-{2-methyl-4-[1,2,2,2-tetrafluoro-1-(trifluoromethyl)ethyl]phenyl}-N^2-(1-methyl-2-methylsulfinylethyl)phthalamide]
4 | 155 to 156 | Cc1cc(C(F)(C(F)(F)F)C(F)(F)F)ccc1N(C(=O)c1cccc(Cl)c1C(N)=O)C(C)CS(C)(=O)=O (stereo not shown) [compound 37, 3-chloro-N^1-{2-methyl-4-[1,2,2,2-tetrafluoro-1-(trifluoromethyl)ethyl]phenyl}-N^1-(1-methyl-2-methylsulfonylethyl)phthalamide]
